The nature of data set [1]: Brain penetration in rats, 24 h IV infusion, brain to plasma ratios. Type of data set: in vivo, Sprague-Dawley rats. From the text: To understand the brain penetration, brain to plasma ratios of the compounds were obtained in Sprague-Dawley (SD) rats. In vivo equilibrium distribution between blood and brain in preclinical species such as rats is a commonly used parameter to evaluate brain penetration. Kp,brain is the ratio of concentrations in brain and blood (Cbrain/Cplasma). The compound's passive diffusion characteristics, its affinity for membrane transporters at the blood-brain barrier (BBB), and the relative drug binding affinity differences between the plasma proteins and brain tissue influence the Kp,brain.
The animals received IV infusion of 1 mg/kg/hr of the compound over 24 hours via jugular vein cannulation. At 24 hours, blood was collected via tail vein bleeding or cardiac puncture (under anesthesia) and centrifuged to obtain plasma samples. Brain tissues were collected and homogenized with phosphate-buffered saline (PBS). The concentrations of the compounds were obtained in the plasma and brain homogenates by LC-MS/MS analysis.

The target in a further data set is PDGFRα D842V (Homo sapiens (Human), UniProt P16234, D842V). As to the kind of experiment: PDGFRα D842V biochemical enzymatic activity assay (EZReader 2 mobility shift). The following applies: ATP at APPKM (25 μM), 90 minutes. An excerpt: PDGFRα and KIT enzymatic activity was monitored using the Perkin Elmer electrophoretic mobility shift technology platform, the EZReader 2.
Within the linear, steady-state phase of the kinase enzymatic reaction, the mixed pool of phosphorylated (product) and non-phosphorylated (substrate) peptides was passed through the microfluidic system of the PerkinElmer EZ Reader 2, under an applied electric potential difference. The presence of the phosphate group on the product peptide provided a difference in mass and charge between that of the substrate peptide, resulting in a separation of the substrate and product pools in the sample (Perrin et al., Expert Opin Drug Discovery 2010, January 5(1):51-63).
As the product and substrate peptide mixture passes the lasers within the instrument, these pools are detected (λex=488 nm, λem=568 nm) and resolved as separate peaks. The ratio between these peaks reflects the activity of the compound at that concentration, in that well, under those conditions.
Inhibition of KIT (D816V) PDGFRα (D842V) Mutant Biochemical Enzymatic Activity
All test articles were dissolved in 100% DMSO at a stock concentration of 10 mM. A 100×, 10-point, 4-fold serial dilution of all test compounds was created in 100% DMSO, starting at a relevant concentration, usually 1 mM. A volume of 0.130 μL of each concentration was transferred to the relevant well of a 384-well assay plate (Greiner 781 201) using a TTPLabtech Mosquito nano-liter dispenser. Using the Multidrop, the remaining constituents of the reaction were then added to the 0.130 μL of compound as follows:
The reaction was stopped by the addition of 70 μl of Stop buffer (100 mM HEPES pH 7.5, 0.015% Brij 35, 35 mM EDTA and 0.2% of Coating Reagent 3, Caliper Lifesciences). The plate was read on a Caliper EZReader 2.

Molecules are shown by their SMILES.

We go through eight molecules from patent publication US12552795B2, “Pyrrolotriazine derivatives for treating kit-and PDGFRA-mediated diseases” (Blueprint Medicines Corporation, priority 2019, dated 2026).

Chain of PDGFRα D842V (P16234 24-1089 D842V): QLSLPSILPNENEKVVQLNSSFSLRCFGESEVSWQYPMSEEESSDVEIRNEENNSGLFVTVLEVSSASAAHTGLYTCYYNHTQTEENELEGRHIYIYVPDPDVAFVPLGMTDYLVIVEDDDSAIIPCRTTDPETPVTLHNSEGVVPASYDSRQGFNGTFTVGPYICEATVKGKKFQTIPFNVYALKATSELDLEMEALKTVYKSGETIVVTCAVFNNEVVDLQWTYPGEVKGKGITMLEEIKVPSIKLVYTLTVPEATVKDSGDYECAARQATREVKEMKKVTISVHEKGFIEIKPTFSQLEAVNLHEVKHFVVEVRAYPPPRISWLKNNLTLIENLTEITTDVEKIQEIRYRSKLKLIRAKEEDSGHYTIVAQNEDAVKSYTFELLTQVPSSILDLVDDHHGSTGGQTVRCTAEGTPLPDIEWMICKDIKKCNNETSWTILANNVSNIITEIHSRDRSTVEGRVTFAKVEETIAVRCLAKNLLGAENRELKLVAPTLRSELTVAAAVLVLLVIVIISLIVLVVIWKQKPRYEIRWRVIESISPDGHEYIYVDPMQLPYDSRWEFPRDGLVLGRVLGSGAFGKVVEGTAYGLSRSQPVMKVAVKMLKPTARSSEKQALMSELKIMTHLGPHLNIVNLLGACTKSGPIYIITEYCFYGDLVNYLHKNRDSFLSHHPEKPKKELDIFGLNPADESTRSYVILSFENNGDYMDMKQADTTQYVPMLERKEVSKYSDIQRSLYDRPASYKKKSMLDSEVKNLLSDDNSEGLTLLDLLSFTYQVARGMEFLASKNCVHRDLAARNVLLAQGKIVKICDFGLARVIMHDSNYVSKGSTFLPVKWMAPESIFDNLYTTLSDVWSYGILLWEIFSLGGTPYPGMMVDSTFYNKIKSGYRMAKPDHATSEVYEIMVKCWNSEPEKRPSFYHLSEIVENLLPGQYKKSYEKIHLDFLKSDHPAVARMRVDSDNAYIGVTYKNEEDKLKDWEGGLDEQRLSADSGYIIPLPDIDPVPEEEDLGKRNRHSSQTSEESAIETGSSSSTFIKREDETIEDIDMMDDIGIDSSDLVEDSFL

For the molecule `C[C@](N)(c1ccc(F)cc1)c1cnc(N2CCN(c3ncnn4cc(-c5cnn([C@H]6C[C@@H](O)C6)c5)cc34)CC2)nc1` [Compound 10, cis-3-(4-(4-(4-(5-((S)-1-Amino-1-(4-fluorophenyl)ethyl)pyrimidin-2-yl)piperazin-1-yl)pyrrolo[2,1-f][1,2,4]triazin-6-yl)-1H-pyrazol-1-yl)cyclobutanol], the “Rat Kp” value in data set [1] (rat, methods of Example 4) is given as < 0.39.
In the case of `CC(C)(CO)n1cc(-c2cc3c(N4CCN(c5ncc([C@@](C)(N)c6ccc(F)cc6)cn5)CC4)ncnn3c2)cn1` [Compound 2, (S)-2-(4-(4-(4-(5-(1-amino-1-(4-fluorophenyl)ethyl)pyrimidin-2-yl)piperazin-1-yl)pyrrolo[2,1-f][1,2,4]triazin-6-yl)-1H-pyrazol-1-yl)-2-methylpropan-1-ol], the concentration for half-maximal inhibition (IC50) on PDGFRα D842V was < 0.3 nM.
Turning to `C[C@@H](CO)n1cc(-c2cc3c(N4CCN(c5ncc([C@@](C)(N)c6ccc(F)cc6)cn5)CC4)ncnn3c2)cn1` [Compound 6, (S)-2-(4-(4-(4-(5-((S)-1-amino-1-(4-fluorophenyl)ethyl)pyrimidin-2-yl)piperazin-1-yl)pyrrolo[2,1-f][1,2,4]triazin-6-yl)-1H-pyrazol-1-yl)propan-1-ol], the IC50 at PDGFRα D842V was < 0.3 nM.
On to `CC(C)(O)Cn1cc(-c2cc3c(N4CCN(c5ncc([C@@](C)(N)c6ccc(F)cc6)cn5)CC4)ncnn3c2)cn1` [Compound 1, (S)-1-(4-(4-(4-(5-(1-Amino-1-(4-fluorophenyl)ethyl)pyrimidin-2-yl)piperazin-1-yl)pyrrolo[2,1-f][1,2,4]triazin-6-yl)-1H-pyrazol-1-yl)-2-methylpropan-2-ol], for which the IC50 on PDGFRα D842V was < 0.3 nM.
On to `CCn1cc(-c2cc3c(N4CCN(c5ncc([C@@](C)(N)c6ccc(F)cc6)cn5)CC4)ncnn3c2)cn1` [Compound 63, reference compound], for which the “Kp, brain” value in data set [1] (Mean of 3 rats, IV infusion 1 mg/kg/hr over 24 hours) stood at 1.75.
For `C[C@@H](O)Cn1cc(-c2cc3c(N4CCN(c5ncc([C@@](C)(N)c6ccc(F)cc6)cn5)CC4)ncnn3c2)cn1` [Compound 3, (R)1-{4-[4-(4-{5-[(S)-1-Amino-1-(4-fluoro-phenyl)-ethyl]-pyrimidin-2-yl}-piperazin-1-yl)-pyrrolo[2,1-f][1,2,4]triazin-6-yl]-pyrazol-1-yl}-propan-2-ol], the IC50 on PDGFRα D842V is < 0.3 nM.
On to `C[C@H](CO)n1cc(-c2cc3c(N4CCN(c5ncc([C@@](C)(N)c6ccc(F)cc6)cn5)CC4)ncnn3c2)cn1` [Compound 5, (R)-2-(4-(4-(4-(5-((S)-1-Amino-1-(4-fluorophenyl)ethyl)pyrimidin-2-yl)piperazin-1-yl)pyrrolo[2,1-f][1,2,4]triazin-6-yl)-1H-pyrazol-1-yl)propan-1-ol], for which, on PDGFRα D842V, the IC50 was < 0.3 nM.
Same read-out and setting: next, `C[C@](N)(c1ccc(F)cc1)c1cnc(N2CCN(c3ncnn4cc(-c5cnn(CCO)c5)cc34)CC2)nc1` [Compound 4, (S)-2-(4-(4-(4-(5-(1-Amino-1-(4-fluorophenyl)ethyl)pyrimidin-2-yl)piperazin-1-yl)pyrrolo[2,1-f][1,2,4]triazin-6-yl)-1H-pyrazol-1-yl)ethanol]: < 0.3 nM.

As a reminder, the IC50 is the concentration at which inhibition is half-maximal.
